Read-outs that look alike come from different tables or passages of the source.
Assays:
[1] = diffusion of drug through egg shell membrane in diffusion cell; assay type: in vitro ADME
Procedure: A diffusion cell was partitioned by an egg shell membrane. […] While maintaining a temperature of 37° C., the two liquid phases were stirred, and after a lapse of a predetermined period of time, the amount of the drug which diffused into the acceptor side from the donor side was measured.
The diffusion cell used was a glass cell for use in an ordinary diffusion experiment. The egg shell was obtained by removing the contents of an egg from the shell, immersing the shell in 0.7% acetic acid for 30 minutes, subjecting it to ultrasonication for 15 minutes, and carefully peeling the membrane from the shell.
A control test was carried out in the same way as above except that only the drug was added to the donor side.
The amount of the drug which diffused to the acceptor side was measured 30 minutes later, and compared with the control.
The relative amount of the drug diffused from the drug-penetration enhancer system was calculated by taking the amount of the drug diffused from the control donor side as 100. […] Bull., Vol. 20, p.

[2] = test system: eye (cornea, iris, conjunctiva); assay: primary eye irritation (Draize) in rabbits; assay type: in vivo, white native male rabbits; conditions: 2.4% soln, average of three rabbits
Procedure: enhancers of this invention shown in Table 17 was applied dropwise to one eye of white native male rabbits (body weight 2.0 to 3.0 kg; 3 per group) which, it had been ascertained, were free from any trouble at the cornea, iris and conjunctiva. Nothing was applied to the other eye. Thus, irritation of the absorption aid to the mucous membrane of the eyes were examined, and scores were calculated in accordance with the Draize's eye irritation evaluating method [Association of Foods, "Drugs and Cosmetics" (1957)].
As a control, sodium laurylsulfate, a kind of surface-active agent, was evaluated in the same way, and the results are also shown in Table 17.

carrageenan edema = carrageenan edema inhibiting effect of betamethasone valerate ointments; assay type: in vivo, rat; conditions: Table 5, betamethasone valerate ointment with penetration enhancer
Procedure: An ointment was prepared from 0.15 part by weight of betamethasone valerate, 9.85 parts by weight of compound (168) and 90 parts by weight of the hydrophilic ointment.
In accordance with the method of R. Passarella et al. [Argneim. Forsch 30, (I), Nr. 4, 647-651 (1980)], the carrageenan edema inhibiting effect of the above ointment was examined. Specifically, 0.1 ml of a 1% carrageenan suspension in 0.9% NaCl solution was injected into the tip of the right leg of a rat (body weight 150-175 g). The foot volume was measured immediately after administration of carrageenan and 3, 5, and 6 hours after the administration by means of a mercury displacement device. 0.5, 1 and 2 hours after the administration of carrageenan, 100 mg of the ointment was well […] into each of the sites which underwent inflammation.
Various ointments were prepared from 0.15 part by weight of betamethasone valerate, […] of the various penetration enhancers shown in Table 5, and 85 parts by weight of the hydrophilic ointment, and tested in the same way as in Example 23.

[3] = 30 minutes, drug 0.05% with compound (168) 1.0% on donor side, drug alone = 100, 37° C.

With O=C(O)c1cc(=O)c2c(OCC(O)COc3cccc4oc(C(=O)O)cc(=O)c34)cccc2o1 [Sodium cromoglicate] the “Relative amount of the drug diffused” value [1] was 159.
In the case of Urokinase, the “Relative amount of the drug diffused” value [1, 3] is reported as 115.
In the case of CCCCCCCC(=O)OCC(COC(=O)[C@@H]1CCC(=O)N1)OC(=O)CCCCCCC (some centres unmarked) [Compound (162), 2,3-dioctanoyloxy-1-pyroglutamyloxypropane], the “Primary irritation score, Conjunctiva” value ([2]; 1 hour) is reported as 3.3, the “Primary irritation score, Cornea” value ([2]; 1 hour) is reported as 0 and the “Primary irritation score, Iris” value ([2]; 1 hour) is reported as 0. For the same compound, the “Primary irritation score, Total” value ([2]; 1 hour) was 3.3, the “Primary irritation score, Conjunctiva” value ([2]; 3 hours) was 2.0 and the “Primary irritation score, Cornea” value ([2]; 3 hours) was 0. For the same compound, the “Primary irritation score, Iris” value ([2]; 3 hours) was 0, the “Primary irritation score, Total” value ([2]; 3 hours) was 2.0 and the “Primary irritation score, Conjunctiva” value ([2]; 6 hours) was 2.0. The “Primary irritation score, Cornea” value ([2]; 6 hours) was 0, the “Primary irritation score, Iris” value ([2]; 6 hours) was 0 and the “Primary irritation score, Total” value ([2]; 6 hours) was 2.0. The “Primary irritation score, Conjunctiva” value ([2]; 24 hours) was 0, the “Primary irritation score, Cornea” value ([2]; 24 hours) was 0 and the “Primary irritation score, Iris” value ([2]; 24 hours) was 0. The “Primary irritation score, Total” value ([2]; 24 hours) was 0, the “Primary irritation score, Conjunctiva” value ([2]; 48 hours) was 0 and the “Primary irritation score, Cornea” value ([2]; 48 hours) was 0. The “Primary irritation score, Iris” value ([2]; 48 hours) was 0, the “Primary irritation score, Total” value ([2]; 48 hours) was 0 and the “Primary irritation score, Conjunctiva” value ([2]; 72 hours) was 0. The “Primary irritation score, Cornea” value ([2]; 72 hours) was 0, the “Primary irritation score, Iris” value ([2]; 72 hours) was 0 and the “Primary irritation score, Total” value ([2]; 72 hours) was 0. The “Primary irritation score, Conjunctiva” value ([2]; 96 hours) was 0, the “Primary irritation score, Cornea” value ([2]; 96 hours) was 0 and the “Primary irritation score, Iris” value ([2]; 96 hours) was 0. For the same compound, the “Primary irritation score, Total” value ([2]; 96 hours) was 0, the “Primary irritation score, Conjunctiva” value ([2]; 168 hours) was 0 and the “Primary irritation score, Cornea” value ([2]; 168 hours) was 0. The “Primary irritation score, Iris” value ([2]; 168 hours) was 0, the “Primary irritation score, Total” value ([2]; 168 hours) was 0 and the “Percentage inhibition vs. control” value (carrageenan edema; 3 hrs) was 16.1%. For the same compound, the “Percentage inhibition vs. control” value (carrageenan edema; 5 hrs) was 34.0% and the “Percentage inhibition vs. control” value (carrageenan edema; 6 hrs) was 34.2%.
With COc1ccc2c(c1)c(CC(=O)O)c(C)n2C(=O)c1ccc(Cl)cc1 [Indomethacin] the “Relative amount of the drug diffused” value [1, 3] was 217.
For CCC=CCCCCCCCCOCC(O)COC(=O)[C@@H]1CCC(=O)N1 (some centres unmarked) [Compound (134), 3-(9-dodecenyloxy)-2-hydroxy-1-pyroglutamyloxypropane], the “Primary irritation score, Conjunctiva” value ([2]; 1 hour) was 3.3, the “Primary irritation score, Cornea” value ([2]; 1 hour) was 0 and the “Primary irritation score, Iris” value ([2]; 1 hour) was 0. The “Primary irritation score, Total” value ([2]; 1 hour) was 3.3, the “Primary irritation score, Conjunctiva” value ([2]; 3 hours) was 1.3 and the “Primary irritation score, Cornea” value ([2]; 3 hours) was 0. For the same compound, the “Primary irritation score, Iris” value ([2]; 3 hours) was 0, the “Primary irritation score, Total” value ([2]; 3 hours) was 1.3 and the “Primary irritation score, Conjunctiva” value ([2]; 6 hours) was 1.3. For the same compound, the “Primary irritation score, Cornea” value ([2]; 6 hours) was 0, the “Primary irritation score, Iris” value ([2]; 6 hours) was 0 and the “Primary irritation score, Total” value ([2]; 6 hours) was 1.3. For the same compound, the “Primary irritation score, Conjunctiva” value ([2]; 24 hours) was 0, the “Primary irritation score, Cornea” value ([2]; 24 hours) was 0 and the “Primary irritation score, Iris” value ([2]; 24 hours) was 0. For the same compound, the “Primary irritation score, Total” value ([2]; 24 hours) was 0, the “Primary irritation score, Conjunctiva” value ([2]; 48 hours) was 0 and the “Primary irritation score, Cornea” value ([2]; 48 hours) was 0. The “Primary irritation score, Iris” value ([2]; 48 hours) was 0, the “Primary irritation score, Total” value ([2]; 48 hours) was 0 and the “Primary irritation score, Conjunctiva” value ([2]; 72 hours) was 0. For the same compound, the “Primary irritation score, Cornea” value ([2]; 72 hours) was 0, the “Primary irritation score, Iris” value ([2]; 72 hours) was 0 and the “Primary irritation score, Total” value ([2]; 72 hours) was 0. The “Primary irritation score, Conjunctiva” value ([2]; 96 hours) was 0, the “Primary irritation score, Cornea” value ([2]; 96 hours) was 0 and the “Primary irritation score, Iris” value ([2]; 96 hours) was 0. For the same compound, the “Primary irritation score, Total” value ([2]; 96 hours) was 0, the “Primary irritation score, Conjunctiva” value ([2]; 168 hours) was 0 and the “Primary irritation score, Cornea” value ([2]; 168 hours) was 0. For the same compound, the “Primary irritation score, Iris” value ([2]; 168 hours) was 0, the “Primary irritation score, Total” value ([2]; 168 hours) was 0 and the “Percentage inhibition vs. control” value (carrageenan edema; 3 hrs) was 16.4%. The “Percentage inhibition vs. control” value (carrageenan edema; 5 hrs) was 30.3% and the “Percentage inhibition vs. control” value (carrageenan edema; 6 hrs) was 34.2%.
In the case of CC(=O)OCC1=C(C(=O)O)N2C(=O)[C@@H](NC(=O)Cc3cccs3)[C@H]2SC1 [Cephalothin], the “Relative amount of the drug diffused” value [1, 3] is reported as 139.
For CN(C)CCCN1c2ccccc2Sc2ccc(Cl)cc21 [Chlorpromazine], the “Relative amount of the drug diffused” value [1, 3] was 133.
With C=C1/C(=C\C=C2/CCC[C@]3(C)[C@@H]([C@H](C)CCCC(C)(C)O)CC[C@@H]23)C[C@@H](O)C[C@@H]1O [1,25-Dihydroxyvitamin D3] the “Relative amount of the drug diffused” value [1] was 123.
In the case of C[C@](N)(Cc1ccc(O)c(O)c1)C(=O)O [Methyldopa], the “Relative amount of the drug diffused” value [1, 3] is reported as 137.
